Experimental data taken from PubChem BioAssay AID276 (DTP/NCI, 2004).
Where “and” joins values, the source holds several entries; their conditions need not be identical. Identical values can stand only once. Toxic doses and inconclusive results are not listed.

Test system: B6C3F1 mice, Lewis lung carcinoma iv, survival T/C
Experiment: NCI In Vivo Anticancer Drug Screen. Data for tumor model Lewis Lung Carcinoma (intravenous) in B6C3F1 mice
Details: endpoint: median survival time, higher = longer survival
Outline: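 Antitumor activity is assessed in tumor-bearing mice by comparing survival after compound treatment against vehicle-treated controls, reported as a T/C ratio.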

[1] = dose: 6.25 mg/kg/injection, schedule: Q01DX009 (ip), vehicle: saline with Tween-80
[2] = dose: 12.5 mg/kg/injection, schedule: Q01DX009 (ip), vehicle: saline with Tween-80
[3] = dose: 25.0 mg/kg/injection, schedule: Q01DX009 (ip), vehicle: saline with Tween-80
[4] = dose: 50.0 mg/kg/injection, schedule: Q01DX009 (ip), vehicle: saline with Tween-80
[5] = dose: 12.5 mg/kg/injection, schedule: Q01DX009 (ip), vehicle: Klucel (hydroxypropylcellulose) (HPC)
[6] = dose: 100.0 mg/kg/injection, schedule: Q01DX009 (ip), vehicle: saline with Tween-80
[7] = dose: 200.0 mg/kg/injection, schedule: Q01DX009 (ip), vehicle: saline with Tween-80
[8] = dose: 8.0 mg/kg/injection, schedule: Q01DX009 (ip), vehicle: Klucel (hydroxypropylcellulose) (HPC)
[9] = dose: 0.5 mg/kg/injection, schedule: Q01DX009 (ip), vehicle: saline
[10] = dose: 1.0 mg/kg/injection, schedule: Q01DX009 (ip), vehicle: saline

Structure (SMILES): CCCCCCCCCCCCCCC/C([O-])=N/[N+](C)(C)CC(C)O (stereo not drawn)
- T/C (dose: 25.0 mg/kg/injection, schedule: Q01DX001 (ip), vehicle: saline): 91 % of control
- T/C (dose: 50.0 mg/kg/injection, schedule: Q01DX001 (ip), vehicle: saline): 88 % of control
- T/C (dose: 100.0 mg/kg/injection, schedule: Q01DX001 (ip), vehicle: saline): 87 % of control
- T/C (dose: 200.0 mg/kg/injection, schedule: Q01DX001 (ip), vehicle: saline): 95 % of control

Structure (SMILES): CC1=NN(c2cccc(S(=O)(=O)O)c2)C(=O)C1N=Nc1cc(Cl)cc(S(=O)(=O)O)c1O.CC1=NN(c2cccc(S(=O)(=O)O)c2)C(=O)C1N=Nc1cc(Cl)cc(S(=O)(=O)O)c1O.[Cr] (stereo not drawn)
- T/C (dose: 25.0 mg/kg/injection, schedule: Q01DX009 (ip), vehicle: saline): 92 % of control
- T/C (dose: 50.0 mg/kg/injection, schedule: Q01DX009 (ip), vehicle: saline): 100 % of control
- T/C (dose: 100.0 mg/kg/injection, schedule: Q01DX009 (ip), vehicle: saline): 98 % of control
- T/C (dose: 200.0 mg/kg/injection, schedule: Q01DX009 (ip), vehicle: saline): 98 % of control

Structure (SMILES): FC(F)(F)c1nc2nc(Cl)c(Cl)nc2[nH]1
- T/C [1]: 98 % of control
- T/C [2]: 106 % of control
- T/C [3]: 106 % of control
- T/C [4]: 93 % of control

Structure (SMILES): CN(C)/N=N/c1nc[nH]c1C(N)=O
- T/C [5]: 229 % of control

Structure (SMILES): COc1cccc2c1C(=O)c1c(O)c3c(c(O)c1C2=O)C[C@@](O)(C(=O)CO)C[C@@H]3OC1CC(OC(C)=O)C(OC(C)=O)C(C)O1 (stereo partly drawn)
- T/C (dose: 0.78 mg/kg/injection, schedule: Q01DX009 (ip), vehicle: water): 91 % of control
- T/C (dose: 1.5 mg/kg/injection, schedule: Q01DX009 (ip), vehicle: water): 119 % of control
- T/C (dose: 1.56 mg/kg/injection, schedule: Q01DX009 (ip), vehicle: distilled water + Tween-80): 106 % of control
- T/C (dose: 1.56 mg/kg/injection, schedule: Q01DX009 (ip), vehicle: water): 103 % of control
- T/C (dose: 3.0 mg/kg/injection, schedule: Q01DX009 (ip), vehicle: water): 111 % of control
- T/C (dose: 3.12 mg/kg/injection, schedule: Q01DX009 (ip), vehicle: distilled water + Tween-80): 113 % of control
- T/C (dose: 3.12 mg/kg/injection, schedule: Q01DX009 (ip), vehicle: water): 111 % of control
- T/C (dose: 12.0 mg/kg/injection, schedule: Q01DX009 (ip), vehicle: water): 266 % of control
- T/C (dose: 12.5 mg/kg/injection, schedule: Q01DX009 (ip), vehicle: distilled water + Tween-80): 285 % of control

Structure (SMILES): CSc1ncnc2c1ncn2C1OC(CO)C(O)C1O (stereo not drawn)
- T/C (dose: 3.12 mg/kg/injection, schedule: Q01DX009 (ip), vehicle: saline + alcohol): 96 % of control
- T/C (dose: 6.25 mg/kg/injection, schedule: Q01DX009 (ip), vehicle: saline + alcohol): 97 % of control
- T/C (dose: 12.5 mg/kg/injection, schedule: Q01DX009 (ip), vehicle: saline + alcohol): 100 % of control
- T/C (dose: 25.0 mg/kg/injection, schedule: Q01DX009 (ip), vehicle: saline + alcohol): 105 % of control
- T/C (dose: 50.0 mg/kg/injection, schedule: Q01DX009 (ip), vehicle: saline + alcohol): 117 % of control

Structure (SMILES): N=c1c(C(=O)OCc2ccccc2)ncc(CCl)n1O
- T/C [3]: 96 % of control
- T/C [4]: 97 % of control
- T/C [6]: 109 % of control
- T/C [7]: 92 % of control

Structure (SMILES): C[Si](C)(C)OSc1ccccc1[N+](=O)[O-]
- T/C [5]: 120 % of control
- T/C (dose: 25.0 mg/kg/injection, schedule: Q01DX009 (ip), vehicle: Klucel (hydroxypropylcellulose) (HPC)): 110 % of control
- T/C (dose: 50.0 mg/kg/injection, schedule: Q01DX009 (ip), vehicle: Klucel (hydroxypropylcellulose) (HPC)): 102 % of control
- T/C (dose: 100.0 mg/kg/injection, schedule: Q01DX009 (ip), vehicle: Klucel (hydroxypropylcellulose) (HPC)): 102 % of control
- T/C (dose: 200.0 mg/kg/injection, schedule: Q01DX009 (ip), vehicle: Klucel (hydroxypropylcellulose) (HPC)): 102 % of control
- T/C (dose: 400.0 mg/kg/injection, schedule: Q01DX009 (ip), vehicle: Klucel (hydroxypropylcellulose) (HPC)): 104 % of control

Structure (SMILES): CCCCC(=O)OCC(=O)[C@]1(O)Cc2c(O)c3c(c(O)c2[C@@H](OC2CC(NC(=O)C(F)(F)F)C(O)C(C)O2)C1)C(=O)c1c(OC)cccc1C3=O (stereo partly drawn)
- T/C (dose: 4.0 mg/kg/injection, schedule: Q01DX009 (ip), vehicle: Klucel (hydroxypropylcellulose) (HPC)): 100 % of control
- T/C (dose: 4.0 mg/kg/injection, schedule: Q01DX009 (ip), vehicle: saline with Tween-80): 107 % of control
- T/C [8]: 100 % of control
- T/C (dose: 8.0 mg/kg/injection, schedule: Q01DX009 (ip), vehicle: saline with Tween-80): 88 % of control
- T/C (dose: 16.0 mg/kg/injection, schedule: Q01DX009 (ip), vehicle: Klucel (hydroxypropylcellulose) (HPC)): 107 % of control
- T/C (dose: 16.0 mg/kg/injection, schedule: Q01DX009 (ip), vehicle: saline with Tween-80): 96 % of control
- T/C (dose: 32.0 mg/kg/injection, schedule: Q01DX009 (ip), vehicle: Klucel (hydroxypropylcellulose) (HPC)): 110 % of control
- T/C (dose: 32.0 mg/kg/injection, schedule: Q01DX009 (ip), vehicle: saline with Tween-80): 108 % of control
- T/C (dose: 64.0 mg/kg/injection, schedule: Q01DX009 (ip), vehicle: Klucel (hydroxypropylcellulose) (HPC)): 118 % of control
- T/C (dose: 128.0 mg/kg/injection, schedule: Q01DX009 (ip), vehicle: Klucel (hydroxypropylcellulose) (HPC)): 120 % of control

Structure (SMILES): CC[C@@]1(O)C(=O)OCc2c1cc1n(c2=O)Cc2cc3cc(O)ccc3nc2-1
- T/C (dose: 0.18 mg/kg/injection, schedule: Q01DX009 (ip), vehicle: saline): 106 % of control
- T/C (dose: 0.37 mg/kg/injection, schedule: Q01DX009 (ip), vehicle: saline): 104 % of control
- T/C (dose: 0.75 mg/kg/injection, schedule: Q01DX009 (ip), vehicle: saline): 102 % of control
- T/C (dose: 1.5 mg/kg/injection, schedule: Q01DX009 (ip), vehicle: saline): 103 % of control
- T/C (dose: 3.0 mg/kg/injection, schedule: Q01DX009 (ip), vehicle: saline): 110 % of control

Structure (SMILES): Cc1cc(NCCN(C(C)C)C(C)C)nc(/N=C(\N)Nc2ccc(Cl)c(C(F)(F)F)c2)n1
- T/C (dose: 1.25 mg/kg/injection, schedule: Q01DX009 (ip), vehicle: Klucel (hydroxypropylcellulose) (HPC)): 93 % of control and 95 % of control
- T/C (dose: 2.5 mg/kg/injection, schedule: Q01DX009 (ip), vehicle: Klucel (hydroxypropylcellulose) (HPC)): 95 % of control and 100 % of control
- T/C (dose: 5.0 mg/kg/injection, schedule: Q01DX009 (ip), vehicle: Klucel (hydroxypropylcellulose) (HPC)): 94 % of control and 96 % of control
- T/C (dose: 10.0 mg/kg/injection, schedule: Q01DX009 (ip), vehicle: Klucel (hydroxypropylcellulose) (HPC)): 97 % of control and 117 % of control
- T/C (dose: 20.0 mg/kg/injection, schedule: Q01DX009 (ip), vehicle: Klucel (hydroxypropylcellulose) (HPC)): 94 % of control and 112 % of control

Structure (SMILES): O=NN(CCCl)C(=O)NC1CCCCC1
- T/C (dose: 1.0 mg/kg/injection, schedule: Q01DX009 (ip), vehicle: Klucel (hydroxypropylcellulose) (HPC)): 98 % of control
- T/C (dose: 2.0 mg/kg/injection, schedule: Q01DX009 (ip), vehicle: Klucel (hydroxypropylcellulose) (HPC)): 112 % of control and 120 % of control
- T/C (dose: 2.0 mg/kg/injection, schedule: Q01DX009 (ip), vehicle: other): 108 % of control
- T/C (dose: 4.0 mg/kg/injection, schedule: Q01DX009 (ip), vehicle: other): 100 % of control
- T/C [8]: 295 % of control and 314 % of control
- T/C (dose: 8.0 mg/kg/injection, schedule: Q01DX009 (ip), vehicle: other): 100 % of control
- T/C (dose: 16.0 mg/kg/injection, schedule: Q01DX009 (ip), vehicle: other): 119 % of control
- T/C (dose: 32.0 mg/kg/injection, schedule: Q01DX009 (ip), vehicle: other): 166 % of control

Structure (SMILES): CN=S(=O)(OCCCCCOS(=O)(=NC)c1ccc(C)cc1)c1ccc(C)cc1 (stereo not drawn)
- T/C [1]: 99 % of control
- T/C [2]: 99 % of control
- T/C [3]: 91 % of control
- T/C [4]: 94 % of control
- T/C [6]: 92 % of control
- T/C [7]: 96 % of control

Structure (SMILES): CCO/C=C1\SC(=S)N(c2ccccc2C)C1=O
- T/C [2]: 104 % of control
- T/C [3]: 110 % of control
- T/C [4]: 98 % of control
- T/C [6]: 116 % of control
- T/C [7]: 108 % of control
- T/C (dose: 400.0 mg/kg/injection, schedule: Q01DX009 (ip), vehicle: saline with Tween-80): 89 % of control

Structure (SMILES): NC(=O)c1ccc(N)nc1
- T/C [9]: 115 % of control
- T/C [10]: 115 % of control

Structure (SMILES): O=C1C(NCC(O)CO)=C(N2CC2)C(=O)C(NCC(O)CO)=C1N1CC1 (stereo not drawn)
- T/C [9]: 100 % of control
- T/C [10]: 98 % of control
- T/C (dose: 2.0 mg/kg/injection, schedule: Q01DX009 (ip), vehicle: saline): 108 % of control
- T/C (dose: 4.0 mg/kg/injection, schedule: Q01DX009 (ip), vehicle: saline): 116 % of control
